Measured values: ChEMBL document CHEMBL1159225, “Oceanapamine, a sesquiterpene alkaloid from the Philippine sponge Oceanapia sp” (J Nat Prod, 1995)
The source made the active and inactive calls. The rule behind the calls is not given here.

Tests used:
Type in all cases: functional, organism-based
Escherichia coli = experiment: Antimicrobial activity against Escherichia coli at 25 ug/disk by standard disk assay
Bacillus subtilis = experiment: Antimicrobial activity against Bacillus subtilis at 25 ug/disk by standard disk assay
Candida albicans = experiment: Antifungal activity against Candida albicans at 50 ug/disk by standard disk assay
Pseudomonas aeruginosa = experiment: Antimicrobial activity against Pseudomonas aeruginosa at 100 ug/disk by standard disk assay
Staphylococcus aureus = experiment: Antimicrobial activity against Staphylococcus aureus at 50 ug/disk by standard disk assay

With `C=C1CCCC(C)(C)[C@H]1CC/C(C)=C/Cc1nc[nH]c1CCN` the Activity (Escherichia coli) was “Active”, the Activity (Bacillus subtilis) was “Active” and the Activity (Candida albicans) was “Active”. The Activity (Pseudomonas aeruginosa) was “Active” and the Activity (Staphylococcus aureus) was “Active”.

In the case of `C=C1CCCC(C)(C)[C@H]1CC/C(C)=C/Cc1ncn2c1CCNC2=O`, the Activity (Escherichia coli) is reported as “inactive”, the Activity (Bacillus subtilis) is reported as “inactive” and the Activity (Candida albicans) is reported as “inactive”. The Activity (Pseudomonas aeruginosa) was “inactive” and the Activity (Staphylococcus aureus) was “inactive”.
